Assay results: US6407116B1, “Nitrogenous fused-ring compounds, process for the preparation of the same, and drugs” (Takeda Chemical Industries, Inc., priority 1997, dated 2002)
Where a name gives a salt, the structure may show the parent alone.

How the values were obtained:
[1] = tested on: histamine-induced dermal vascular hyperpermeability; assay: Effect on histamine-induced dermal vascular hyperpermeability in guinea pigs; assay type: in vivo, guinea pig; settings: 3 mg/kg oral administration, 1 hour before intradermal histamine, male Hartley guinea pigs; for inhibition in vivo at 3 mg/kg: Cavia porcellus
Method: Effect on Histamine-induced Dermal Vascular Hyperpermeability in Guinea Pigs
Male Hartley guinea pigs (weighing about 500 g) were used. […] After 30 minutes, the animal was hit on its head to make it unconscious, and cut at its neck to sacrifice by exsanguination. The dorsal skin was peeled and examined for the long and short diameters (mm) of each blue spot which were then multiplied to give a product, which was averaged to give a vascular permeability index. Each substance was suspended in 5% gum arabic solution, and given orally in the volume of 0.2 ml/100 g body weight 1 hour before histamine administration. Control animals received the same volume of 5% gum arabic solution. A % inhibition of this reaction was calculated according to [Equation 1].
% Inhibition of histamine-induced dermal vascular hyperpermeability=100×(1-vascular permeability index in treatment group/vascular permeability index in control group) [Equation 1]

[2] = tested on: guinea-pig eosinophils; assay: Chemotaxis inhibition assay: LTB4-induced chemotaxis in guinea-pig eosinophils; assay type: cell-based; settings: test substance 1×10^−5 M, LTB4 10^−8 M, 2 hours; for inhibition at 10 µM: Cavia porcellus, Eosinophil
Method: 1) Guinea-pig Eosinophil Preparation
Male Hartley guinea-pigs received 2 ml of equine serum (Bio-Whittaker, Inc) intraperitoneally once a week for successive 8 weeks. 48 hours after the last administration, 75 ml of physiological saline was injected into the peritoneal cavity, and the fluid was recovered and centrifuged at 400 G for 5 minutes. […] Erythrocytes in the isolated cell pellet, if any, were removed by hypotonic treatment (suspended in water for 30 seconds).
2) Chemotaxis Inhibition Assay
600 μl of LTB4 suspended in Hanks-Hepes-HSA (final concentration of 10^−8 M, Cascade Biochemical Ltd.) was placed in the lower compartment of a 24-well plate and kept at 37° C. for 30 minutes in a CO2 gas incubator. After mounting a Chemotaxicell (polycarbonate membrane, pore size 3 μm, thickness 10 μm), which served as an upper compartment, on the 24-well plate described above, 200 μl of eosinophil suspension (5×10^6 cells/ml), which had been incubated at 37° C. for 15 minutes in a thermostat chamber, was added to the upper compartment. After allowing to react for 2 hours in the CO2 gas incubator, the Chemotaxicell was removed, and 60 μl of 2% (w/v) EDTA solution in physiological saline was added to the lower compartment. After cooling on ice, the cells which underwent the chemotaxis into the lower compartment were counted using a blood cell counter (Coulter Counter (trade name)). In the procedure described above, the test substance was dissolved in N,N-dimethylformamide (DMF) and added to the upper and lower compartments at the final concentration of 10^−5 M.
% Chemotaxis inhibition=[…] [Equation 2]
The results are shown in [Table 2].

Row | Compound | melting point [°C] | inhibition in vivo at 3 mg/kg [1] [%] | inhibition at 10 µM [2] [%] | Inhibition of histamine-induced dermal vascular hyperpermeability (%) [1] [%] | Inhibition (%) of LTB4-induced chemotaxis [2] [%]
1 | O=c1[nH]c(=O)n(CCCCN2CCC(OC(c3ccccc3)c3ccccc3)CC2)c2ccccc12 [Example 2, 2,4-Dioxo-1-[4-(4-diphenylmethoxy-1-piperidinyl)butyl]-1,2,3,4-tetrahydroquinazoline] | 131 to 133 | 88 | 91 |  | 
2 | O=c1[nH]c(=O)n(CCCCN2CCC(OC(c3ccccc3)c3ccccc3)CC2)c2ccc([N+](=O)[O-])cc12 [Example 12, 2,4-Dioxo-1-[4-(4-diphenylmethoxypiperidino)butyl]-6-nitro-1,2,3,4-tetrahydroquinazoline] | 211 to 213 | 80 | 66 |  | 
3 | CCOC(=O)C(C)(C)n1c(=O)c2ccccc2n(CCCCN2CCC(OC(c3ccccc3)c3ccccc3)CC2)c1=O.Cl [Example 27] |  |  |  | 94 | 52
4 | COC(=O)C(C)(C)n1c(=O)c2ccccc2n(CCCCN2CCC(OC(c3ccccc3)c3ccccc3)CC2)c1=O.Cl [Example 30] |  |  |  | 88 | 77
5 | CCOC(=O)C(C)(C)n1c(=O)c2cc(F)ccc2n(CCCCN2CCC(OC(c3ccccc3)c3ccccc3)CC2)c1=O [Example 33, Ethyl 2-[1-[4-(4-diphenylmethoxypiperidino)butyl]-2,4-dioxo-6-fluoro-1,2,3,4-tetrahydroquinazolin-3-yl]isobutyrate hydrochloride] |  | 88 | 54 |  | 
6 | Nc1ccc2c(c1)c(=O)[nH]c(=O)n2CCCCN1CCC(OC(c2ccccc2)c2ccccc2)CC1 [Example 40, 6-Amino-2,4-dioxo-1-[4-(4-diphenylmethoxypiperidino)butyl]-1,2,3,4-tetrahydroquinazoline] | 131 to 133 | 90 |  |  | 
7 | O=C(O)CCn1c(=O)c2ccccc2n(CCCCN2CCC(OC(c3ccccc3)c3ccccc3)CC2)c1=O [Example 52, 2,4-Dioxo-1-[4-(4-diphenylmethoxypiperidino)butyl]-1,2,3,4-tetrahydroquinazoline-3-propionic acid] | 107 to 108 | 88 |  |  | 
8 | O=C(O)CCCCn1c(=O)c2ccccc2n(CCCCN2CCC(OC(c3ccccc3)c3ccccc3)CC2)c1=O [Example 60, 2,4-Dioxo-1-[4-(4-diphenylmethoxypiperidino)butyl]-1,2,3,4-tetrahydroquinazoline-3-valeric acid] |  | 93 | 65 |  | 
9 | N#CCCCCn1c(=O)c2ccccc2n(CCCCN2CCC(OC(c3ccccc3)c3ccccc3)CC2)c1=O [Example 93, 2,4-Dioxo-1-[4-(4-diphenylmethoxypiperidino)butyl]-1,2,3,4-tetrahydroquinazoline-3-valeronitrile] |  | 84 | 62 |  | 
10 | CCOC(=O)CCCCCn1c(=O)c2ccccc2n(CCCCN2CCC(OC(c3ccccc3)c3ccccc3)CC2)c1=O.Cl [Example 95, Ethyl 2,4-dioxo-1-[4-(4-diphenylmethoxypiperidino)butyl]-1,2,3,4-tetrahydroquinazoline-3-hexanoate hydrochloride] | 149 to 151 | 85 |  |  | 
11 | CC(C)(C(=O)O)n1c(=O)c2cc(F)ccc2n(CCCCN2CCC(OC(c3ccccc3)c3ccccc3)CC2)c1=O [Example 124, 2-[2,4-Dioxo-1-[4-(4-diphenylmethoxypiperidino)butyl]-6-fluoro-1,2,3,4-tetrahydroquinazolin-3-yl]isobutyric acid hydrochloride] |  | 90 |  |  | 
12 | CC(C)(C(=O)O)n1c(=O)c2cc(F)c(F)cc2n(CCCCN2CCC(OC(c3ccccc3)c3ccccc3)CC2)c1=O [Example 125, 2-[2,4-Dioxo-1-[4-(4-diphenylmethoxypiperidino)butyl]-6,7-difluoro-1,2,3,4-tetrahydroquinazolin-3-yl]isobutyric acid hydrochloride] |  | 81 |  |  | 
